Tests used:
[1] = tested on: TU5 tumoral cells; test: Macrophage cytotoxic activity towards TU5 tumoral cells (peritoneal cells of mice treated i.p., collected seven days later and incubated with tumor target cells); type: cell-based, mouse; conditions: peritoneal cells collected 7 days later, 48 h incubation with TU5 tumoral cells, colorimetric at 570 nm
Protocol: The experimental procedure to evaluate this activity is as follows: groups of 4 mice are treated i.p. with the tested compounds and then, seven days later, peritoneal cells are collected and plated for 2 hours at 37° C. After this period the walls are washed to eliminate the non adherent cells, tumor target cells are then added and the incubation is prolonged for 48 hours. At the end of this period the target cells viability is evaluated by a colorimetric method and quantified at 570 nm.
The following table summarizes the immunostimulating activity data of some compounds of the invention, obtained according to the hereabove experimental procedure, towards TU5 tumoral cells (Eur. J. Immunol. 1982, 12, 320)
Cytotoxic activity is calculated as % inhibition of TU5 tumoral cells growth using the following formula [formula] where
O.D.A.=optical density from cocultured TU5 and vehicol treated macrophages
O.D.B.=optical density from vehicol treated macrophages alone
O.D.C=optical density from cocultured TU5 and FCE compound treated macrophages
O.D.D=optical density from FCE compound treated macrophages alone.

[2] = Approximate acute toxicity (LD50) in the mouse, per os; conditions: in vivo, po, single administration of increasing doses, measured on seventh day after the day of treatment
Protocol: For example, the approximate acute toxicity (LD50) in the mouse of the compound 4-hydroxy-N-(2-pyridyl)-cinnoline-3-carboxamide determined per os with single administration of increasing doses and measured on the seventh day after the day of treatment, is higher than 800 mg/kg. Analogous toxicity data have been found for the other compounds of the invention.

Structure (SMILES) | Macrophage cytotoxic activity (% inhibition) ([1]; 50 mg/kg i.p. to mice) [%] | LD50 at 168 h [2] [mg/kg] | Macrophage cytotoxic activity (% inhibition) ([1]; 10 mg/kg i.p. to mice) [%]
CN(C(=O)c1nnc2ccccc2c1O)c1ccccn1 [FCE 25051, 4-hydroxy-N-methyl-N-(2-pyridyl)-cinnoline-3-carboxamide] | 80 |  | 
O=C(Nc1ccccn1)c1nnc2ccccc2c1O [FCE 24089, 4-hydroxy-N-(2-pyridyl)-cinnoline-3-carboxamide] |  | > 800 | 90
O=C(Nc1ccccc1)c1nnc2ccccc2c1O [FCE 25008, 4-hydroxy-N-phenyl-cinnoline-3-carboxamide] | 71 |  | 
